Consider 68 sequences from the supplement of paper PMC11208160.
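Note: IS621 bridge recombinase in Escherichia coli cells against a fixed T5 target plasmid.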

The nature of the data set: recombinant UMI read abundance after kanamycin selection (control-corrected) (log10(CPM+1)); higher = more efficient recombination; extreme values may be limits of the assay; sequences stand for … in AGTGCAGAGAAAATCGGCCAGTTTTCTCTGCCTGCAGTCCGCATGCCGTGGGACCCCTTGGGTTCTAACCTGTTGCCTAGATTTATGCAGCGGACTGCCTTTCTCCCAAAGTGATAAACCGG…AGGTTGGTTTCACT; site = the 11-nt donor. In a few lines: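 Under IPTG (0.07 mM) plus kanamycin, or without selection, Escherichia coli carrying a UMI-tagged donor and donor-binding-loop pair library and a target plasmid for the IS621 bridge recombinase were plated in two replicates. Recombinant UMIs were PCR-amplified across the donor–target junction and sequenced. Counts were converted to CPM, averaged over replicates, scaled by control-derived factors and reported as log10(CPM+1).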
“GCTCCAACATGGACCGGTTTTCCCGGTAATCCGTATTTGTA (site GATCCAACTTA)”: the “recombinant UMI read abundance (log10)” value was 0.0429.
Then “GCTCCAACATGGACCGGTTTTCCCGGTAATCCGTATTTGTA (site GCTCCAACTTA)”, with 0.877; and “GCTCCAACATGGACCGGTTTTCCCGGTAATCCGTATTTGTA (site GGTCCAACTTA)”, with 0.0155.
To “GCTCCAACATGGACCGGTTTTCCCGGTAATCCGTATTTGTA (site GTTCCAACTTA)” belongs 0.481; to “GCTCCGACATGGACCGGTTTTCCCGGTAATCCGTATTTGGA (site GCTCCGACTTC)”, 0.0323.
For “GCTCGATCATGGACCGGTTTTCCCGGTAATCCGTATTTGGA (site GCTCGATCTTC)”, the “recombinant UMI read abundance (log10)” value worked out at 1.99.
“GCTCGTCCATGGACCGGTTTTCCCGGTAATCCGTATTTGAG (site GCTCGTCCTCT)”: the “recombinant UMI read abundance (log10)” value amounted to 0.0111.
Then “GCTCGTTCATGGACCGGTTTTCCCGGTAATCCGTATTTGAT (site GCTCGTTCTAT)”, with 1.25; and “GCTCTGTCATGGACCGGTTTTCCCGGTAATCCGTATTTGTT (site GCTCTGTCTAA)”, with 1.59; and “GCTGAATCATGGACCGGTTTTCCCGGTAATCCGTATTTGCA (site GCTGAATCTTG)”, with 1.83.
Then “GCTGACGCATGGACCGGTTTTCCCGGTAATCCGTATTTGAT (site GCTGACGCTAT)”, with 1.53; and “GCTGCCTCATGGACCGGTTTTCCCGGTAATCCGTATTTGGT (site GCTGCCTCTAC)”, with 0.342.
With “GCTGGTTCATGGACCGGTTTTCCCGGTAATCCGTATTTGTC (site GCTGGTTCTGA)”, the “recombinant UMI read abundance (log10)” value turned out to be 0.00915.
To “GCTTATACATGGACCGGTTTTCCCGGTAATCCGTATTTGCT (site GCTTATACTAG)” belongs 0.
To “GCTTGCCCATGGACCGGTTTTCCCGGTAATCCGTATTTGAG (site GCTTGCCCTAT)” belongs 0.0201; to “GCTTGCCCATGGACCGGTTTTCCCGGTAATCCGTATTTGAG (site GCTTGCCCTCT)”, 0.0701.
Then “GCTTGCCCATGGACCGGTTTTCCCGGTAATCCGTATTTGAG (site GCTTGCCCTGT)”, with 0.
For “GCTTGCCCATGGACCGGTTTTCCCGGTAATCCGTATTTGAG (site GCTTGCCCTTT)”, the “recombinant UMI read abundance (log10)” value was 0.107.
Take “GCTTGCCCATGGACCGGTTTTCCCGGTAATCCGTATTTGTT (site GCTTGCCCTAA)”: the “recombinant UMI read abundance (log10)” value worked out at 0.0266.
Then “GCTTGCCCATGGACCGGTTTTCCCGGTAATCCGTATTTGTT (site GCTTGCCCTAC)”, with 0.0939.
Then “GCTTGCCCATGGACCGGTTTTCCCGGTAATCCGTATTTGTT (site GCTTGCCCTAG)”, with 0.
Then “GCTTGCCCATGGACCGGTTTTCCCGGTAATCCGTATTTGTT (site GCTTGCCCTAT)”, with 0.013; and “GCTTGGACATGGACCGGTTTTCCCGGTAATCCGTATTTGAC (site GATTGGACTGT)”, with 0.
In the case of “GCTTGGACATGGACCGGTTTTCCCGGTAATCCGTATTTGAC (site GCTTGGACTGT)”, the “recombinant UMI read abundance (log10)” value came out at 2.39.
As for “GCTTGGACATGGACCGGTTTTCCCGGTAATCCGTATTTGAC (site GGTTGGACTGT)”, the “recombinant UMI read abundance (log10)” value came out at 0.132.
Then “GCTTGGACATGGACCGGTTTTCCCGGTAATCCGTATTTGAC (site GTTTGGACTGT)”, with 0.707.
Then “GCTTGGCCATGGACCGGTTTTCCCGGTAATCCGTATTTGAT (site GCTTGACCTAT)”, with 0.00769.
Then “GCTTGGCCATGGACCGGTTTTCCCGGTAATCCGTATTTGAT (site GCTTGCCCTAT)”, with 0.00795.
“GCTTGGCCATGGACCGGTTTTCCCGGTAATCCGTATTTGAT (site GCTTGGCCTAT)”: the “recombinant UMI read abundance (log10)” value was found to be 0.
To “GCTTGGCCATGGACCGGTTTTCCCGGTAATCCGTATTTGAT (site GCTTGTCCTAT)” belongs 0.00708; to “GCTTGTACATGGACCGGTTTTCCCGGTAATCCGTATTTGGT (site GCTTGTACTAC)”, 1.08; to “GCTTTAACATGGACCGGTTTTCCCGGTAATCCGTATTTGCT (site GCTTTAACTAG)”, 0.0522.
In the case of “GCTTTCCCATGGACCGGTTTTCCCGGTAATCCGTATTTGAT (site GCTTACCCTAT)”, the “recombinant UMI read abundance (log10)” value turned out to be 0.
Then “GCTTTCCCATGGACCGGTTTTCCCGGTAATCCGTATTTGAT (site GCTTCCCCTAT)”, with 0.00917; and “GCTTTCCCATGGACCGGTTTTCCCGGTAATCCGTATTTGAT (site GCTTGCCCTAT)”, with 0.00235; and “GCTTTCCCATGGACCGGTTTTCCCGGTAATCCGTATTTGAT (site GCTTTCCCTAT)”, with 0.343.
To “GGAAACTCATGGACCGGTTTTCCCGGTAATCCGTATTTGTC (site GGAAACTCTGA)” belongs 2.42; to “GGAAAGACATGGACCGGTTTTCCCGGTAATCCGTATTTGCC (site GGAAAGACTGG)”, 1.64.
For the sequence “GGAAAGACATGGACCGGTTTTCCCGGTAATCCGTATTTGCC (site GGACAGACTGG)”, the “recombinant UMI read abundance (log10)” value was determined as 0.
Then “GGAAAGACATGGACCGGTTTTCCCGGTAATCCGTATTTGCC (site GGAGAGACTGG)”, with 0.347; and “GGAAAGACATGGACCGGTTTTCCCGGTAATCCGTATTTGCC (site GGATAGACTGG)”, with 0.
To “GGAAAGGCATGGACCGGTTTTCCCGGTAATCCGTATTTGCT (site AGAAAGGCTAG)” belongs 1.75; to “GGAAAGGCATGGACCGGTTTTCCCGGTAATCCGTATTTGCT (site CGAAAGGCTAG)”, 1.06; to “GGAAAGGCATGGACCGGTTTTCCCGGTAATCCGTATTTGCT (site GGAAAGGCTAG)”, 2.39.
Then “GGAAAGGCATGGACCGGTTTTCCCGGTAATCCGTATTTGCT (site TGAAAGGCTAG)”, with 1.25; and “GGAACAGCATGGACCGGTTTTCCCGGTAATCCGTATTTGCC (site GGAACAGCTGG)”, with 3.09; and “GGAACATCATGGACCGGTTTTCCCGGTAATCCGTATTTGCT (site CGATCATCTAG)”, with 0.
Take “GGAACATCATGGACCGGTTTTCCCGGTAATCCGTATTTGCT (site GGAACATCTAG)”: the “recombinant UMI read abundance (log10)” value amounted to 2.03.
Then “GGAACTTCATGGACCGGTTTTCCCGGTAATCCGTATTTGGC (site GGAACTTCTGC)”, with 1.94; and “GGAAGATCATGGACCGGTTTTCCCGGTAATCCGTATTTGAA (site GGAAGATCTTT)”, with 2.06.
To “GGACACCCATGGACCGGTTTTCCCGGTAATCCGTATTTGTT (site GGACACCCTAA)” belongs 0.444; to “GGACACCCATGGACCGGTTTTCCCGGTAATCCGTATTTGTT (site GGCCACCCTAA)”, 0.011.
For “GGACACCCATGGACCGGTTTTCCCGGTAATCCGTATTTGTT (site GGGCACCCTAA)”, the “recombinant UMI read abundance (log10)” value is 0.0209.
On to “GGACACCCATGGACCGGTTTTCCCGGTAATCCGTATTTGTT (site GGTCACCCTAA)”, for which the “recombinant UMI read abundance (log10)” value was 0.00995.
To “GGACACGCATGGACCGGTTTTCCCGGTAATCCGTATTTGAC (site GGACACGCTGT)” belongs 2.38; to “GGACGCGCATGGACCGGTTTTCCCGGTAATCCGTATTTGGA (site GGACGCGCTTC)”, 0.00923.
To “GGACGGCCATGGACCGGTTTTCCCGGTAATCCGTATTTGCG (site GGACGGCCTCG)” belongs 0.137.
Then “GGACTAGCATGGACCGGTTTTCCCGGTAATCCGTATTTGTA (site GGACTAGCTTA)”, with 2.56; and “GGAGACACATGGACCGGTTTTCCCGGTAATCCGTATTTGTC (site GGAGACACTGA)”, with 2.59.
Regarding “GGAGCATCATGGACCGGTTTTCCCGGTAATCCGTATTTGAA (site GGAGCATCTTT)”, the “recombinant UMI read abundance (log10)” value amounted to 1.8.
To “GGAGGCCCATGGACCGGTTTTCCCGGTAATCCGTATTTGAT (site GGAGGCCCTAT)” belongs 0.727.
To “GGAGGGCCATGGACCGGTTTTCCCGGTAATCCGTATTTGGC (site GGAGGGCCTGC)” belongs 0.
Regarding “GGAGGTACATGGACCGGTTTTCCCGGTAATCCGTATTTGCG (site GGAGGTACTCG)”, the “recombinant UMI read abundance (log10)” value was determined as 1.31.
For “GGAGTCGCATGGACCGGTTTTCCCGGTAATCCGTATTTGGT (site GGAGTAGCTAC)”, the “recombinant UMI read abundance (log10)” value stood at 0.278.
Then “GGAGTCGCATGGACCGGTTTTCCCGGTAATCCGTATTTGGT (site GGAGTCGCTAC)”, with 0.854; and “GGAGTCGCATGGACCGGTTTTCCCGGTAATCCGTATTTGGT (site GGAGTGGCTAC)”, with 0.0282.
Turning to “GGAGTCGCATGGACCGGTTTTCCCGGTAATCCGTATTTGGT (site GGAGTTGCTAC)”, the “recombinant UMI read abundance (log10)” value turned out to be 0.00431.
To “GGAGTGACATGGACCGGTTTTCCCGGTAATCCGTATTTGGT (site GGAGTGACTAC)” belongs 0.736.
